# From patent EP1388586A2, “Identification of broadly reactive DR restricted epitopes” (priority 1998, dated 1999)
# Ends that are not written are not given here.
# Target: T1, DRB1*0301 (DR3w17) (Homo sapiens, UniProt P01903+P01911, A100K/A102G/A103R/A169T/F55Y/I96L/K41T/L162R/M171V/P40S/Q125H/Q178H/Q39Y/R42S/S66N/T106N/T262R/W38E/Y61H)
# T1 construct: used as sources of human HLA class II molecules; endogenous in cells; host or cells: MAT (EBV-transformed homozygous B cell line)
# Experiment: Class II peptide-binding assay, DR3 (pH 4.5);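 further: unlabeled peptide competing with a radiolabeled probe peptide for binding to affinity-purified HLA-DR3, IC50 regarded as an approximation of Kd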
# Details: Table VIII, page 2; pH 4.5; read-out: In IC50 Format DR3
# T1 sequence (P01903 26-254, other chains not shown): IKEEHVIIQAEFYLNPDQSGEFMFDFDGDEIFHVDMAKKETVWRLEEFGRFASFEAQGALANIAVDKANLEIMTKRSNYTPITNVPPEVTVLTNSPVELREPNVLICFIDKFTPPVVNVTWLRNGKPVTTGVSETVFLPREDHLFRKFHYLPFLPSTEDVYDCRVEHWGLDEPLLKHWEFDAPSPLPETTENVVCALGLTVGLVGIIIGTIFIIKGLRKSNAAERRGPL
row,Molecule,IC50 [µM]
1,CC[C@H](C)[C@H](NC(=O)[C@H](CC(N)=O)NC(=O)[C@@H](N)CCC(N)=O)C(=O)N[C@H](C(=O)N[C@@H](CCC(N)=O)C(=O)N[C@@H](CC(N)=O)C(=O)N[C@@H](CC(=O)O)C(=O)N[C@H](C(=O)NCC(=O)N[C@@H](Cc1ccccc1)C(=O)N[C@@H](Cc1ccc(O)cc1)C(=O)N[C@H](C(=O)N[C@@H](CC(C)C)C(=O)N[C@@H](Cc1c[nH]cn1)C(=O)N[C@H](C(=O)O)C(C)C)[C@@H](C)O)[C@@H](C)O)[C@@H](C)CC [Peptide 39.0313],0.938
2,CC[C@H](C)[C@H](NC(=O)[C@@H](NC(=O)[C@H](Cc1c[nH]cn1)NC(=O)[C@@H](N)CC(C)C)C(C)C)C(=O)N[C@@H](CCCCN)C(=O)N[C@@H](CO)C(=O)N[C@@H](CC(=O)O)C(=O)N[C@@H](CC(C)C)C(=O)N[C@H](C(=O)N[C@@H](CC(N)=O)C(=O)N[C@@H](CCC(=O)O)C(=O)N[C@@H](CCC(=O)O)C(=O)N[C@@H](C)C(=O)N[C@H](C(=O)NCC(=O)O)[C@@H](C)O)C(C)C [Peptide 39.0314],2.31

# Same assay, conditions: Table VIII; values in parentheses read as lower bounds; read-out: In IC50 Format DR3
row,Molecule,IC50 [µM]
1,CSCC[C@H](NC(=O)[C@H](CCCNC(=N)N)NC(=O)[C@H](CO)NC(=O)[C@H](Cc1ccccc1)NC(=O)[C@H](CCC(=O)O)NC(=O)[C@H](CO)NC(=O)[C@@H](NC(=O)[C@H](CC(C)C)NC(=O)[C@H](CCC(=O)O)NC(=O)[C@H](CCCNC(=N)N)NC(=O)[C@@H](N)Cc1ccccc1)C(C)C)C(=O)N[C@@H](C)C(=O)N[C@@H](CCCNC(=N)N)C(=O)N[C@@H](CC(=O)O)C(=O)N1CCC[C@H]1C(=O)O [Peptide 39.0370],4.23

# Same assay, conditions: read-out: In IC50 Format DR3 nM; Table VIII; values in parentheses read as lower bounds
row,Molecule,IC50 [µM]
1,CC(C)C[C@H](NC(=O)[C@@H]1CCCN1C(=O)[C@@H](NC(=O)[C@@H](NC(=O)[C@@H]1CCCN1C(=O)[C@H](CC(=O)O)NC(=O)[C@H](CCC(=O)O)NC(=O)[C@H](CO)NC(=O)[C@H](Cc1ccc(O)cc1)NC(=O)[C@H](CCCNC(=N)N)NC(=O)[C@H](CCC(N)=O)NC(=O)[C@@H](N)CC(C)C)[C@@H](C)O)C(C)C)C(=O)N1CCC[C@H]1C(=O)N[C@@H](CO)C(=O)N[C@@H](CCC(=O)O)C(=O)O [Peptide 39.0379],11.1
2,C[C@H](NC(=O)CNC(=O)CNC(=O)[C@@H](N)CCC(N)=O)C(=O)N[C@@H](C)C(=O)N1CCC[C@H]1C(=O)N[C@@H](CCC(N)=O)C(=O)N1CCC[C@H]1C(=O)N[C@@H](Cc1c[nH]cn1)C(=O)N1CCC[C@H]1C(=O)N1CCC[C@H]1C(=O)N1CCC[C@H]1C(=O)N[C@@H](C)C(=O)N[C@@H](Cc1ccccc1)C(=O)N[C@@H](CO)C(=O)O [Peptide 39.0382],> 120
3,SDVFDGDLGMGAAKG [Peptide 39.0378],> 120
4,CC(C)C[C@H](NC(=O)[C@H](CC(=O)O)NC(=O)[C@@H](NC(=O)[C@H](CS)NC(=O)[C@H](CO)NC(=O)[C@@H](N)Cc1c[nH]cn1)C(C)C)C(=O)N[C@@H](CC(=O)O)C(=O)N[C@@H](CC(=O)O)C(=O)N[C@@H](CCCCN)C(=O)NCC(=O)N[C@@H](CS)C(=O)N1CCC[C@H]1C(=O)N[C@@H](C)C(=O)N[C@@H](CCC(=O)O)C(=O)N[C@@H](CCC(N)=O)C(=O)O [Peptide 39.0359],> 111
5,CC[C@H](C)[C@H](NC(=O)CNC(=O)[C@H](Cc1ccccc1)NC(=O)[C@@H](NC(=O)[C@H](CC(C)C)NC(=O)[C@@H](N)CCC(N)=O)C(C)C)C(=O)N[C@@H](CCC(=O)O)C(=O)N[C@H](C(=O)N[C@H](C(=O)N[C@@H](CCC(=O)O)C(=O)N[C@H](C(=O)N[C@H](C(=O)N1CCC[C@H]1C(=O)N[C@H](C(=O)N[C@@H](CO)C(=O)O)[C@@H](C)CC)C(C)C)C(C)C)C(C)C)C(C)C [Peptide 39.0389],41.7
6,AIKVLRENTSPKANK [Peptide 39.0362],40
7,NKEILDEAYVMAGVG [Peptide 39.0363],63.8
8,NQEVTAEDGTQRCEK [Peptide 39.0347],> 111
9,MRRLLQETELVEPLT [Peptide 39.0360],> 111
10,QGFFCPDPAPGAGGM [Peptide 39.0376],66.7
11,CC(C)[C@H](N)C(=O)N[C@H](C(=O)N[C@@H](CS)C(=O)N[C@@H](Cc1ccccc1)C(=O)NCC(=O)N1CCC[C@H]1C(=O)N[C@@H](CCC(=O)O)C(=O)N[C@@H](C)C(=O)N[C@@H](CC(=O)O)C(=O)N[C@@H](CCC(N)=O)C(=O)N[C@@H](CS)C(=O)N[C@H](C(=O)N[C@@H](C)C(=O)N[C@@H](CS)C(=O)N[C@@H](C)C(=O)O)C(C)C)[C@@H](C)O [Peptide 39.0356],> 111
12,CSCC[C@H](NC(=O)CNC(=O)[C@H](CC(C)C)NC(=O)CNC(=O)[C@H](Cc1ccc(O)cc1)NC(=O)[C@@H](N)CS)C(=O)N[C@@H](CCC(=O)O)C(=O)N[C@@H](Cc1c[nH]cn1)C(=O)N[C@@H](CC(C)C)C(=O)N[C@@H](CCCNC(=N)N)C(=O)N[C@@H](CCC(=O)O)C(=O)N[C@H](C(=O)N[C@@H](CCCNC(=N)N)C(=O)N[C@@H](C)C(=O)N[C@H](C(=O)O)C(C)C)C(C)C [Peptide 39.0348],36.1
13,KNGVVKDVFAFGGAV [Peptide 39.0381],> 120
14,LVTYNTDTFESMPNP [Peptide 39.0345],> 111
15,DTILWKDIFHKNNQL [Peptide 39.0342],> 111
16,DLTLGLEPSEEEAPR [Peptide 39.0377],> 120
17,CC(C)C[C@H](NC(=O)[C@H](CCC(N)=O)NC(=O)[C@H](CC(=O)O)NC(=O)[C@H](Cc1c[nH]c2ccccc12)NC(=O)[C@@H]1CCCN1C(=O)[C@@H](NC(=O)[C@@H](NC(=O)[C@H](Cc1c[nH]cn1)NC(=O)[C@@H](N)C(C)C)[C@@H](C)O)C(C)C)C(=O)N[C@@H](Cc1ccccc1)C(=O)N[C@@H](CCCNC(=N)N)C(=O)N[C@@H](CC(N)=O)C(=O)N1CCC[C@H]1C(=O)N[C@@H](Cc1c[nH]cn1)C(=O)N[C@@H](CCC(N)=O)C(=O)O [Peptide 39.0353],13.6
18,CC(C)C[C@H](NC(=O)[C@@H]1CCCN1C(=O)[C@H](C)NC(=O)[C@@H](NC(=O)[C@H](CC(N)=O)NC(=O)[C@H](CO)NC(=O)[C@H](C)NC(=O)[C@@H]1CCCN1C(=O)[C@H](CC(=O)O)NC(=O)CNC(=O)[C@H](CC(=O)O)NC(=O)[C@H](Cc1ccccc1)NC(=O)[C@H](CO)NC(=O)[C@H](CCC(=O)O)NC(=O)[C@@H]1CCCN1)[C@@H](C)O)C(=O)O [Peptide 39.0350],> 111

# Same assay, conditions: read-out: In IC50 Format DR3; Table VIII
row,Molecule,IC50 [µM]
1,CC[C@H](C)[C@H](NC(=O)[C@@H](NC(=O)[C@@H](N)CC(C)C)[C@@H](C)O)C(=O)N[C@H](C(=O)N[C@H](C(=O)N[C@@H](CC(C)C)C(=O)N[C@@H](CCC(=O)O)C(=O)N[C@@H](CC(=O)O)C(=O)N[C@@H](CO)C(=O)N[C@@H](CO)C(=O)NCC(=O)N[C@@H](CC(N)=O)C(=O)N[C@@H](CC(C)C)C(=O)N[C@@H](CC(C)C)C(=O)NCC(=O)O)[C@@H](C)O)[C@@H](C)CC [Peptide 39.0421],100
2,CC(C)C[C@H](NC(=O)[C@H](CCC(N)=O)NC(=O)[C@@H](NC(=O)[C@@H]1CCCN1)C(C)C)C(=O)N[C@@H](Cc1c[nH]c2ccccc12)C(=O)N[C@H](C(=O)N[C@@H](CC(=O)O)C(=O)N[C@@H](CO)C(=O)N[C@H](C(=O)N1CCC[C@H]1C(=O)N1CCC[C@H]1C(=O)N1CCC[C@H]1C(=O)NCC(=O)N[C@H](C(=O)N[C@@H](CCCNC(=N)N)C(=O)O)[C@@H](C)O)[C@@H](C)O)C(C)C [Peptide 39.0413],10
3,CC[C@H](C)[C@H](NC(=O)[C@H](CC(=O)O)NC(=O)[C@H](CC(=O)O)NC(=O)[C@@H]1CCCN1C(=O)[C@H](CO)NC(=O)[C@H](CC(C)C)NC(=O)[C@H](CCSC)NC(=O)[C@H](CC(C)C)NC(=O)[C@@H](N)CC(=O)O)C(=O)N[C@@H](CCC(=O)O)C(=O)N[C@@H](CCC(N)=O)C(=O)N[C@@H](Cc1c[nH]c2ccccc12)C(=O)N[C@@H](Cc1ccccc1)C(=O)N[C@H](C(=O)N[C@@H](CCC(=O)O)C(=O)O)[C@@H](C)O [Peptide 39.0411],20
4,CC[C@H](C)[C@H](NC(=O)[C@H](CCC(N)=O)NC(=O)[C@H](CC(C)C)NC(=O)[C@@H](NC(=O)[C@H](Cc1ccccc1)NC(=O)[C@H](Cc1ccc(O)cc1)NC(=O)[C@H](CCC(=O)O)NC(=O)CNC(=O)[C@H](CC(=O)O)NC(=O)[C@H](CC(C)C)NC(=O)[C@@H]1CCCN1C(=O)[C@H](CCCCN)NC(=O)[C@@H](N)CCCCN)[C@@H](C)O)C(=O)N[C@@H](CCCNC(=N)N)C(=O)NCC(=O)O [Peptide 39.0422],> 120
5,CC[C@H](C)[C@H](NC(=O)[C@H](C)NC(=O)[C@@H](N)CC(C)C)C(=O)N[C@H](C(=O)N[C@@H](C)C(=O)N[C@@H](CCCNC(=N)N)C(=O)N[C@@H](CCC(=O)O)C(=O)NCC(=O)N[C@@H](CC(=O)O)C(=O)N[C@@H](CS)C(=O)N[C@@H](C)C(=O)N1CCC[C@H]1C(=O)N[C@@H](CCC(=O)O)C(=O)N[C@@H](CCC(=O)O)C(=O)N[C@@H](CCCCN)C(=O)O)[C@@H](C)CC [Peptide 39.0405],> 120
6,C[C@H](NC(=O)[C@H](CCC(=O)O)NC(=O)[C@H](CC(=O)O)NC(=O)[C@@H]1CCCN1C(=O)CNC(=O)[C@@H]1CCCN1C(=O)[C@H](CC(=O)O)NC(=O)[C@H](CCC(=O)O)NC(=O)[C@@H](NC(=O)[C@H](Cc1ccccc1)NC(=O)[C@H](Cc1c[nH]c2ccccc12)NC(=O)[C@H](CCC(N)=O)NC(=O)[C@@H](N)CCC(=O)O)[C@@H](C)O)C(=O)N1CCC[C@H]1C(=O)N[C@@H](CCCNC(=N)N)C(=O)O [Peptide 39.0412],> 120
7,CC[C@H](C)[C@H](NC(=O)[C@H](C)NC(=O)[C@@H](N)CCSC)C(=O)N[C@@H](Cc1ccc(O)cc1)C(=O)N[C@@H](CCCCN)C(=O)N[C@@H](CCC(N)=O)C(=O)N[C@@H](CO)C(=O)N[C@@H](CCC(N)=O)C(=O)N[C@@H](Cc1c[nH]cn1)C(=O)N[C@@H](CCSC)C(=O)N[C@H](C(=O)N[C@@H](CCC(=O)O)C(=O)N[C@H](C(=O)N[C@H](C(=O)N[C@@H](CCCNC(=N)N)C(=O)O)C(C)C)C(C)C)[C@@H](C)O [Peptide 39.0414],> 120
